Laboratory results: the kinase profiling compilation of Christmann-Franck et al. (2016)

How the values were obtained:
Assay in all cases: KINOMEscan competition binding
Conditions in all cases: compound 10.0 µM
SRPK3 (human) = SRPK3 (human) (UniProt Q9UPE1)
PIM2 (human) = PIM2 (human) (UniProt Q9P1W9)
MAPKAPK2 (human) = MAPKAPK2 (human) (UniProt P49137)
AURKC (human) = AURKC (human) (UniProt Q9UQB9)
[1] = test system: EIF2AK4 KD2 (human), Q9P2K8 [S808G]
PIM3 (human) = PIM3 (human) (UniProt Q86V86)
PHKG2 (human) = PHKG2 (human) (UniProt P15735)
CLK1 (human) = CLK1 (human) (UniProt P49759)
CIT (human) = CIT (human) (UniProt O14578)
DCLK2 (human) = DCLK2 (human) (UniProt Q8N568)
CLK4 (human) = CLK4 (human) (UniProt Q9HAZ1)
[2] = test system: RET (human), P07949 [M918T]
DYRK1B (human) = DYRK1B (human) (UniProt Q9Y463)
MAP2K1 (human) = MAP2K1 (human) (UniProt Q02750)
ZAP70 (human) = ZAP70 (human) (UniProt P43403)
MAPK10 (human) = MAPK10 (human) (UniProt P53779)
MARK3 (human) = MARK3 (human) (UniProt P27448)
NIM1 (human) = NIM1 (human) (UniProt Q8IY84)
PRKCE (human) = PRKCE (human) (UniProt Q02156)
STK25 (human) = STK25 (human) (UniProt O00506)
GAK (human) = GAK (human) (UniProt O14976)
TEK (human) = TEK (human) (UniProt Q02763)
MAPK8 (human) = MAPK8 (human) (UniProt P45983)
RIOK2 (human) = RIOK2 (human) (UniProt Q9BVS4)
MAP3K6 (human) = MAP3K6 (human) (UniProt O95382)
MYLK2 (human) = MYLK2 (human) (UniProt Q9H1R3)
MAP3K12 (human) = MAP3K12 (human) (UniProt Q12852)
ALK (human) = ALK (human) (UniProt Q9UM73)
SLK (human) = SLK (human) (UniProt Q9H2G2)
[3] = molecular target: JAK2 JH1 catalytic (human) (UniProt O60674)
STK17A (human) = STK17A (human) (UniProt Q9UEE5)
PHKG1 (human) = PHKG1 (human) (UniProt Q16816)
FLT4 (human) = FLT4 (human) (UniProt P35916)
PI4KB (human) = PI4KB (human) (UniProt Q9UBF8)
PIK3CB (human) = PIK3CB (human) (UniProt P42338)
MAST1 (human) = MAST1 (human) (UniProt Q9Y2H9)
[4] = molecular target: JAK3 JH1 catalytic (human) (UniProt P52333)
MAP4K5 (human) = MAP4K5 (human) (UniProt Q9Y4K4)
CSNK2A2 (human) = CSNK2A2 (human) (UniProt P19784)
SRPK1 (human) = SRPK1 (human) (UniProt Q96SB4)
IRAK1 (human) = IRAK1 (human) (UniProt P51617)

MAST1 (human), sequence (Q9Y2H9 whole entry, looked up): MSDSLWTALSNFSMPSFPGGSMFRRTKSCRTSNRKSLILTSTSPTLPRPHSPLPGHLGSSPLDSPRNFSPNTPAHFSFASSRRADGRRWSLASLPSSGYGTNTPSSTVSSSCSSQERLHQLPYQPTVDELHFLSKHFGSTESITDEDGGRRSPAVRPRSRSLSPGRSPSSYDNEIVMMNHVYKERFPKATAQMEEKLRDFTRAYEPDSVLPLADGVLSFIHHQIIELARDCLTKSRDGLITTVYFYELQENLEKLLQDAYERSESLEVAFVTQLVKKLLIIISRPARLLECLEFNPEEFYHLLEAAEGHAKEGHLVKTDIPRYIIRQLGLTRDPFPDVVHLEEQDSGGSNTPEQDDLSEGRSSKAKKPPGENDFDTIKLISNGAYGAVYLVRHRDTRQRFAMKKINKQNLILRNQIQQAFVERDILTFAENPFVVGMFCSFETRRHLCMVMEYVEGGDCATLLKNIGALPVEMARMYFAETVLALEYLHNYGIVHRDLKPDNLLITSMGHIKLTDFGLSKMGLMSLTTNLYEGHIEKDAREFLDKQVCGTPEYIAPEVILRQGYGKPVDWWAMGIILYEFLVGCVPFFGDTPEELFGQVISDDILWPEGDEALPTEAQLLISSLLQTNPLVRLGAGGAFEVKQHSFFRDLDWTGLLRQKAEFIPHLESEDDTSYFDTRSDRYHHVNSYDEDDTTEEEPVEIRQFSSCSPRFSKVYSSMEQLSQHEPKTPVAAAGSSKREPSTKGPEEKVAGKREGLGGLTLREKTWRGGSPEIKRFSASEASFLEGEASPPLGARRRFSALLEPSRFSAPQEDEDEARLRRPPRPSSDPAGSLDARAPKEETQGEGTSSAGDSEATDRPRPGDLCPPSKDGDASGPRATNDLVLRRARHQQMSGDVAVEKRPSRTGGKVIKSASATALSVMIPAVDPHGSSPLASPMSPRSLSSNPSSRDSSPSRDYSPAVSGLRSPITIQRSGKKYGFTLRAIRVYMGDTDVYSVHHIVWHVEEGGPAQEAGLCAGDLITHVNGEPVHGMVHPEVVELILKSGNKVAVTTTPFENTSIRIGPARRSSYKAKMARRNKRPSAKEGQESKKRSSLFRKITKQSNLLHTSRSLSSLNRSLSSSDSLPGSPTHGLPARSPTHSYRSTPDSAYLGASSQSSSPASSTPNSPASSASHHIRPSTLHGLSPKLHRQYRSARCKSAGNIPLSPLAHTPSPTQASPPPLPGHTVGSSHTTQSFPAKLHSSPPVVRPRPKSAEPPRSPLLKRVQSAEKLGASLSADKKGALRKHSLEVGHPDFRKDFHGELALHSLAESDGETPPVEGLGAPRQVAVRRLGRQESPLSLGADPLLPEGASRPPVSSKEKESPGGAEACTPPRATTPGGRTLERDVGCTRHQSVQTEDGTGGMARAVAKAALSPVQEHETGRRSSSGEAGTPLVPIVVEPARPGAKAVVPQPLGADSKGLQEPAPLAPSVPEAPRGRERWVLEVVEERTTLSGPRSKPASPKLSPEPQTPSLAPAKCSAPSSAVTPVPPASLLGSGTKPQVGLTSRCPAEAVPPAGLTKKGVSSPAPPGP
CLK4 (human), sequence (Q9HAZ1 whole entry, looked up): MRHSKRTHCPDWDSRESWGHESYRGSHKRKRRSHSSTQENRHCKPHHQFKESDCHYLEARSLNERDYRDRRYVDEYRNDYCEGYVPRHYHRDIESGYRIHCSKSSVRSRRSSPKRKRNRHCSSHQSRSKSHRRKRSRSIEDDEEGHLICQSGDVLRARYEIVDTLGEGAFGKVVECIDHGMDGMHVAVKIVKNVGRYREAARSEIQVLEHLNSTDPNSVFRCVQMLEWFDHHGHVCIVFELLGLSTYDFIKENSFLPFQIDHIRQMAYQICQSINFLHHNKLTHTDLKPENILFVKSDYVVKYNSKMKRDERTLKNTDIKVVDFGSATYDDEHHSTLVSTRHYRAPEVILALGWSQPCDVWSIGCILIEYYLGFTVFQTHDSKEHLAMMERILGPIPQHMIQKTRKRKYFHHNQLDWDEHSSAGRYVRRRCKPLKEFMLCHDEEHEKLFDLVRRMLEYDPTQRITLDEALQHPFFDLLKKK
DCLK2 (human), sequence (Q8N568 whole entry, looked up): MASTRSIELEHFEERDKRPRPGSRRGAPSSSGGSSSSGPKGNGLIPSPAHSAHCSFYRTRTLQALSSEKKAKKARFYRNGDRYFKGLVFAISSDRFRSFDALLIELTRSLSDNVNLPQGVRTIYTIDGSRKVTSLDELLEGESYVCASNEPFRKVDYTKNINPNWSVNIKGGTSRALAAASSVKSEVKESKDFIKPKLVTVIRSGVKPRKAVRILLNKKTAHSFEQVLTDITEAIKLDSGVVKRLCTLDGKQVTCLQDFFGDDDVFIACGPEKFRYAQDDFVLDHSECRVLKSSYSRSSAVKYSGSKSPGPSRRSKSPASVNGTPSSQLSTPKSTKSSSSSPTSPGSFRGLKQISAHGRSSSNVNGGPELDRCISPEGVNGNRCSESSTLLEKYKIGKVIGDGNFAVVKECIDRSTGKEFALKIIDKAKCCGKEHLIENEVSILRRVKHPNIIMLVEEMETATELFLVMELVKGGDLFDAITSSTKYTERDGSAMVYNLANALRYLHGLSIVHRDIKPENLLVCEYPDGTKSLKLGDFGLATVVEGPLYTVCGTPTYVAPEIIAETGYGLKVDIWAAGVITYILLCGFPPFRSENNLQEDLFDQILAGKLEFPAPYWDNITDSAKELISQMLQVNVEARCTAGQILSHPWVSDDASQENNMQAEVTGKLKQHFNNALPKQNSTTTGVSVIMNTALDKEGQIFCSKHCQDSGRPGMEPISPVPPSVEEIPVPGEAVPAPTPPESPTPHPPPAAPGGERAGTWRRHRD
RET (human), P07949 [M918T], sequence (P07949 whole entry M918T, looked up): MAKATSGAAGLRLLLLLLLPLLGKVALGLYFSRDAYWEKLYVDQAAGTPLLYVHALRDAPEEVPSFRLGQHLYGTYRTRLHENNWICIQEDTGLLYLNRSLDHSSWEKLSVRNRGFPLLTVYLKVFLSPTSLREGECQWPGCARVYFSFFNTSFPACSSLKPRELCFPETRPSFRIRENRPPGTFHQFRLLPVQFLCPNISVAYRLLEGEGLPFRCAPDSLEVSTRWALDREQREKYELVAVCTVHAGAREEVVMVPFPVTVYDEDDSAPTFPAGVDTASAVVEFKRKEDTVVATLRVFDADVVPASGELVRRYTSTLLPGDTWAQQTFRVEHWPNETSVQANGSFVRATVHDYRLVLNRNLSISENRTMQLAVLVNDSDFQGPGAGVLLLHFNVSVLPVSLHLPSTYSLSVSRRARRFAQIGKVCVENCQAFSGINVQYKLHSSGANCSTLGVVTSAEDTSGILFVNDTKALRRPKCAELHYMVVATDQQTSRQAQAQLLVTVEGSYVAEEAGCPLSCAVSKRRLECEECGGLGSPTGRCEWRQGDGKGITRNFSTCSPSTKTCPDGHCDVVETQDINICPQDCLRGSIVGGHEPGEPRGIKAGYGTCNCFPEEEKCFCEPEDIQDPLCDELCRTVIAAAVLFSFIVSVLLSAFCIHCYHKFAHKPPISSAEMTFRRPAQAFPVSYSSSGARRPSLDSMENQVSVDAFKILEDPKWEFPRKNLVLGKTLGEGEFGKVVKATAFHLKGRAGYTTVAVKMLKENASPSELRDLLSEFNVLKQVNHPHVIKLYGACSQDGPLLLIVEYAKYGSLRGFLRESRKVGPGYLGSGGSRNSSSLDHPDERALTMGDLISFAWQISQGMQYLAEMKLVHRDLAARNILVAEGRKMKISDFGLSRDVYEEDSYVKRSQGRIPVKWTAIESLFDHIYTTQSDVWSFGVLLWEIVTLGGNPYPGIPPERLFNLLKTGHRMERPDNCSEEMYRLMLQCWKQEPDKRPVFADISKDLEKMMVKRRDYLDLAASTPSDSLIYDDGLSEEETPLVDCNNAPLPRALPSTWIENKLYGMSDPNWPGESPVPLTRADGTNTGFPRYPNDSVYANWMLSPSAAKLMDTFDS
PI4KB (human), sequence (Q9UBF8 whole entry, looked up): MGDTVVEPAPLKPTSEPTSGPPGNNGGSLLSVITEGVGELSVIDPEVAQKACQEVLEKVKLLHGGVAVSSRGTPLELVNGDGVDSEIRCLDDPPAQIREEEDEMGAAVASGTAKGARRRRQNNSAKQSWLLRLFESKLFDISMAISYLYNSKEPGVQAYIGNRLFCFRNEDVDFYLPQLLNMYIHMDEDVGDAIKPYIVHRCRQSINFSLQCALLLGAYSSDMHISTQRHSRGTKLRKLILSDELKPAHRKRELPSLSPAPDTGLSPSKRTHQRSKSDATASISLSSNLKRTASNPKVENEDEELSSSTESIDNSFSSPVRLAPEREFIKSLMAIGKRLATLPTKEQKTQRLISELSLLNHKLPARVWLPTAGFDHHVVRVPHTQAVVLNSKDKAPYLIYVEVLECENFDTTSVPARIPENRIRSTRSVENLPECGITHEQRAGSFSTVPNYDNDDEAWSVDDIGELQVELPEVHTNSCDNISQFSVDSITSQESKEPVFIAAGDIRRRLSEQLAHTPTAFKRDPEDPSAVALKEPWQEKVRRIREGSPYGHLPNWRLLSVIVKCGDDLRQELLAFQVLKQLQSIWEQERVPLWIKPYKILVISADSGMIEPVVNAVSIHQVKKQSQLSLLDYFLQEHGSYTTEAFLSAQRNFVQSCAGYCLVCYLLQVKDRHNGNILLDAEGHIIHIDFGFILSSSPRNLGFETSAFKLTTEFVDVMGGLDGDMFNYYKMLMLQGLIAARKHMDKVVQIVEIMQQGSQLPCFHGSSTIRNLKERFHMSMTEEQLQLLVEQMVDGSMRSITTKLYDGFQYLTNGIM
PIM2 (human), sequence (Q9P1W9 whole entry, looked up): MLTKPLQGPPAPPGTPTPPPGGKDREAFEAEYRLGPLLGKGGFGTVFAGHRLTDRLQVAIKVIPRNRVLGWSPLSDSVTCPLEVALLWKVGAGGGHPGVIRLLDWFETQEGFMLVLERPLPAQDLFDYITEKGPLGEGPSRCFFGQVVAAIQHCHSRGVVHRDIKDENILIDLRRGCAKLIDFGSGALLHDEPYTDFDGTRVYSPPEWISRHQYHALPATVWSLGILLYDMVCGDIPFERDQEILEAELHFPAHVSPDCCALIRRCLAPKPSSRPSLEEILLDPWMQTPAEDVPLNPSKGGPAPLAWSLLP

With `Cn1cc(C2=C(c3ccc(Cl)cc3Cl)C(=O)NC2=O)c2ccccc21` the kinase still bound, per cent of control (SRPK3 (human)) was 100%, the kinase still bound, per cent of control (PIM2 (human)) was 84% and the kinase still bound, per cent of control (MAPKAPK2 (human)) was 100%. For the same compound, the kinase still bound, per cent of control (AURKC (human)) was 96%, the kinase still bound, per cent of control [1] was 100% and the kinase still bound, per cent of control (PIM3 (human)) was 18%. It also gave a kinase still bound, per cent of control (PHKG2 (human)) of 80%, a kinase still bound, per cent of control (CLK1 (human)) of 1.6% and a kinase still bound, per cent of control (CIT (human)) of 85%. It also gave a kinase still bound, per cent of control (DCLK2 (human)) of 100%, a kinase still bound, per cent of control (CLK4 (human)) of 7.8% and a kinase still bound, per cent of control [2] of 100%. It also gave a kinase still bound, per cent of control (DYRK1B (human)) of 2.2%, a kinase still bound, per cent of control (MAP2K1 (human)) of 100% and a kinase still bound, per cent of control (ZAP70 (human)) of 100%. For the same compound, the kinase still bound, per cent of control (MAPK10 (human)) was 62%, the kinase still bound, per cent of control (MARK3 (human)) was 86% and the kinase still bound, per cent of control (NIM1 (human)) was 100%. The kinase still bound, per cent of control (PRKCE (human)) was 94%, the kinase still bound, per cent of control (STK25 (human)) was 76% and the kinase still bound, per cent of control (GAK (human)) was 74%. It also gave a kinase still bound, per cent of control (TEK (human)) of 73%, a kinase still bound, per cent of control (MAPK8 (human)) of 77% and a kinase still bound, per cent of control (RIOK2 (human)) of 95%. For the same compound, the kinase still bound, per cent of control (MAP3K6 (human)) was 64%, the kinase still bound, per cent of control (MYLK2 (human)) was 100% and the kinase still bound, per cent of control (MAP3K12 (human)) was 90%. It also gave a kinase still bound, per cent of control (ALK (human)) of 100%, a kinase still bound, per cent of control (SLK (human)) of 8.7% and a kinase still bound, per cent of control [3] of 96%. For the same compound, the kinase still bound, per cent of control (STK17A (human)) was 16%, the kinase still bound, per cent of control (PHKG1 (human)) was 100% and the kinase still bound, per cent of control (FLT4 (human)) was 97%. It also gave a kinase still bound, per cent of control (PI4KB (human)) of 94%, a kinase still bound, per cent of control (PIK3CB (human)) of 85% and a kinase still bound, per cent of control (MAST1 (human)) of 82%. For the same compound, the kinase still bound, per cent of control [4] was 98%, the kinase still bound, per cent of control (MAP4K5 (human)) was 83% and the kinase still bound, per cent of control (CSNK2A2 (human)) was 99%. It also gave a kinase still bound, per cent of control (SRPK1 (human)) of 89% and a kinase still bound, per cent of control (IRAK1 (human)) of 100%.
